According to ChEMBL document CHEMBL5584317, “Acroamine A, a 2-Amino Adenine Alkaloid from the Marine Soft Coral Acrozoanthus australiae and Its Semisynthetic Derivatives That Inhibit cAMP-Dependent Protein Kinase A Catalytic Subunit Alpha” (J Nat Prod, 2024):
Calls of active or inactive are those of the source. No cut-off for these calls is given here.

Assays:
[1] = Inhibition of DNAJB1-[…] gene fusion of J-PKAc alpha chimeric protein (unknown origin) using CREB KRREILSRRPSYR-biotinylated peptide as substrate incubated for 45 mins in presence of ATP by ELISA; design: species or system Homo sapiens
[2] = target: T1, cAMP-dependent protein kinase catalytic subunit alpha (Homo sapiens, UniProt P17612); test: Inhibition of PKAcalpha (unknown origin) using CREB KRREILSRRPSYR-biotinylated peptide as substrate incubated for 45 mins in presence of ATP by ELISA
Homo sapiens [3] = species: Homo sapiens; test: Inhibition of DNAJB1-[…] gene fusion of J-PKAc alpha chimeric protein (unknown origin) at 10 uM using CREB KRREILSRRPSYR-biotinylated peptide as substrate incubated for 45 mins in presence of 25 to 250 uM ATP by ELISA
Homo sapiens [4] = species: Homo sapiens; test: Inhibition of DNAJB1-[…] gene fusion of J-PKAc alpha chimeric protein (unknown origin) up to 200 uM using CREB KRREILSRRPSYR-biotinylated peptide as substrate incubated for 45 mins in presence of ATP by ELISA
[5] = target: T1, cAMP-dependent protein kinase catalytic subunit alpha; test: Inhibition of PKAcalpha (unknown origin) up to 200 uM using CREB KRREILSRRPSYR-biotinylated peptide as substrate incubated for 45 mins in presence of ATP by ELISA
Homo sapiens [6] = species: Homo sapiens; test: Potency index, ratio of IC50 for acroamine A to IC50 for test compound for inhibition of DNAJB1-[…] gene fusion of J-PKAc alpha chimeric protein (unknown origin) using CREB KRREILSRRPSYR-biotinylated peptide as substrate incubated for 45 mins in presence of ATP by ELISA
[7] = target: T1, cAMP-dependent protein kinase catalytic subunit alpha; test: Potency index, ratio of IC50 for acroamine A to IC50 for test compound for inhibition PKAcalpha (unknown origin) using CREB KRREILSRRPSYR-biotinylated peptide as substrate incubated for 45 mins in presence of ATP by ELISA
Homo sapiens [8] = species: Homo sapiens; test: Inhibition of DNAJB1-[…] gene fusion of J-PKAc alpha chimeric protein (unknown origin) at 2 uM using CREB KRREILSRRPSYR-biotinylated peptide as substrate incubated for 45 mins in presence of 25 to 250 uM ATP by ELISA

| Structure (SMILES) | IC50 [1] | IC50 [2] | inhibition (Homo sapiens [4]) | inhibition [5] | further results |
| --- | --- | --- | --- | --- | --- |
| C/N=c1\nc(NCCc2cn(C)c[n+]2C)c2c(ncn2C)n1C | – | – | inactive | inactive | – |
| Cn1cc(CCNc2n/c(=N\C=[N+](C)C)n(C)c3ncn(C)c23)[n+](C)c1 | – | – | inactive | inactive | – |
| CN(C)c1nc(NCCc2cn(C)c[n+]2C)c2c(n1)[n+](C)cn2C | – | – | inactive | inactive | – |
| Cn1cc(CCNc2nc(=N)n(C)c3ncn(C)c23)[n+](C)c1 | – | – | inactive | inactive | – |

Further lines, with some results ahead:

| IC50 [1] | IC50 [2] | inhibition (Homo sapiens [4]) | inhibition [5] | Structure (SMILES) | further results |
| --- | --- | --- | --- | --- | --- |
| 47 µM | 29 µM | – | – | Nc1nc(NCCc2c[nH]cn2)c2nc[nH]c2n1 | – |
| 11.5 µM | 11.6 µM | – | – | Nc1nc(NCCc2nc[nH]c2Br)c2nc[nH]c2n1 | inhibition (Homo sapiens [3]): inactive |
| 8.9 µM | 5.7 µM | – | – | Nc1nc(NCCc2nc(Br)[nH]c2Br)c2nc[nH]c2n1 | inhibition (Homo sapiens [3]): inactive |
| 2.5 µM | 2.4 µM | – | – | Nc1nc(NCCc2nc(Br)[nH]c2Br)c2nc(Br)[nH]c2n1 | Ratio IC50 (Homo sapiens [6]): 19; Ratio IC50 [7]: 19; inhibition (Homo sapiens [8]): inactive |
| – | – | inactive | inactive | C/N=c1\nc(N(C)CCc2cn(C)c[n+]2C)c2c(ncn2C)n1C | – |
